Measured values: ChEMBL document CHEMBL1201862, “PubChem BioAssay data set” (2004)
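Growth conditions: 96-well plates. Treatment: test compound, 48 hours, 5 concentrations. Analysis: linear interpolation between bracketing concentrations; unreached endpoints set to highest concentration. Abbreviation: GI50, concentration required for 50% inhibition of growth.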 Calls of active or inactive are those of the source. No stated cut-off is given here; in the data, active = GI50 up to about 1.1 µM and inactive = higher.

What was measured:
Assay in all cases: DTP human tumour cell line panel, 48 h
T47D = system: T47D
HT-29 = system: HT-29
IGROV-1 = system: IGROV-1
A549 = system: A549
NCI-H522 = system: NCI-H522
SNB-19 = system: SNB-19
M14 = system: M14
K562 = system: K562
NCI-H23 = system: NCI-H23
HOP-92 = system: HOP-92
UACC-62 = system: UACC-62
NCI-H226 = system: NCI-H226
SW-620 = system: SW-620
786-0 = system: 786-0
CCRF-CEM = system: CCRF-CEM
SNB-75 = system: SNB-75
UACC-257 = system: UACC-257
MDA-N = system: MDA-N
MDA-MB-435 = system: MDA-MB-435
A498 = system: A498

Row | Structure (SMILES) | GI50 (T47D) | GI50 (HT-29) | GI50 (IGROV-1) | GI50 (A549) | GI50 (NCI-H522) | GI50 (SNB-19) | GI50 (M14) | GI50 (K562) | GI50 (NCI-H23) | GI50 (HOP-92) | GI50 (UACC-62) | GI50 (NCI-H226) | GI50 (SW-620) | GI50 (786-0) | GI50 (CCRF-CEM) | GI50 (SNB-75) | GI50 (UACC-257) | GI50 (MDA-N) | GI50 (MDA-MB-435) | GI50 (A498)
1 | CC(=O)OC1CCC2(C)C(=CCC3C2CCC2(C)C3CC3OC4(CCC(C)CN4)C(C)C32)C1 (stereo not given) | > 100 µM (inactive) | > 100 µM (inactive) | > 100 µM (inactive) | > 100 µM (inactive) | > 100 µM (inactive) | > 100 µM (inactive) | > 100 µM (inactive) | > 100 µM (inactive) | > 100 µM (inactive) | > 100 µM (inactive) | > 100 µM (inactive) | > 100 µM (inactive) | > 100 µM (inactive) | 74.3 µM (inactive) | > 100 µM (inactive) | > 100 µM (inactive) | > 100 µM (inactive) | > 100 µM (inactive) | > 100 µM (inactive) | > 100 µM (inactive)
2 | c1ccc(COc2ccc(C[P+](c3ccccc3)(c3ccccc3)c3ccccc3)cc2)cc1 | < 0.0175 µM (active) | 0.19 µM (active) | 0.294 µM (active) | 0.184 µM (active) | 0.195 µM (active) | 0.354 µM (active) | 0.366 µM (active) | 0.0556 µM (active) | 0.2 µM (active) | 0.153 µM (active) | 0.195 µM (active) | 0.504 µM (active) | 0.272 µM (active) | 0.371 µM (active) | 0.627 µM (active) | 0.148 µM (active) | 0.269 µM (active) | 0.221 µM (active) | 0.225 µM (active) | 1.1 µM (active)
3 | O=C(Nc1cnc(O)nc1O)C(Cl)Cl | > 100 µM (inactive) | > 100 µM (inactive) | > 100 µM (inactive) | > 100 µM (inactive) | > 100 µM (inactive) | > 100 µM (inactive) | > 100 µM (inactive) | > 100 µM (inactive) | > 100 µM (inactive) | > 100 µM (inactive) | > 100 µM (inactive) | > 100 µM (inactive) | > 100 µM (inactive) | > 100 µM (inactive) | > 100 µM (inactive) | > 100 µM (inactive) | > 100 µM (inactive) | > 100 µM (inactive) | > 100 µM (inactive) | > 100 µM (inactive)
4 | N#Cc1c(Cl)c2cccnc2n2c1nc1ccccc12 | 2 µM (inactive) | 1.94 µM (inactive) | 1.41 µM (inactive) | 6.59 µM (inactive) | 1.17 µM (inactive) | 15.8 µM (inactive) | 3.15 µM (inactive) | 0.427 µM (active) | 2.07 µM (inactive) | 1.97 µM (inactive) | 3.96 µM (inactive) | 2.93 µM (inactive) | 1.87 µM (inactive) | 1.77 µM (inactive) | 0.9 µM (active) | 4.38 µM (inactive) | 2.69 µM (inactive) | 3.62 µM (inactive) | 4.3 µM (inactive) | 17.3 µM (inactive)
5 | COc1cc(/C=C/C(=O)OC2C(O)C3CC(OC(=O)c4cc(OC)c(OC)c(OC)c4)CC2N3C)cc(OC)c1OC (stereo not given) | 14.5 µM (inactive) | 14.2 µM (inactive) | 0.43 µM (active) | > 50 µM (inactive) | 19.5 µM (inactive) | 12.9 µM (inactive) | > 50 µM (inactive) | > 50 µM (inactive) | > 50 µM (inactive) | 9.77 µM (inactive) | > 50 µM (inactive) | 12.1 µM (inactive) | 16 µM (inactive) | 18.5 µM (inactive) | 17.9 µM (inactive) | 8.73 µM (inactive) | > 50 µM (inactive) | 36.4 µM (inactive) | 23.6 µM (inactive) | 8.04 µM (inactive)
6 | O=NN(CCCl)C(=O)NCCCl [CARMUSTINE] | 110 µM (inactive) | 79.3 µM (inactive) | 70.6 µM (inactive) | 103 µM (inactive) | 42.9 µM (inactive) | 68.4 µM (inactive) | 78.7 µM (inactive) | 45.8 µM (inactive) | 88.1 µM (inactive) | 65.2 µM (inactive) | 23.8 µM (inactive) | 105 µM (inactive) | 52.2 µM (inactive) | 42.3 µM (inactive) | 18.7 µM (inactive) | 52.2 µM (inactive) | 75.5 µM (inactive) | 71.3 µM (inactive) | 75.5 µM (inactive) | 102 µM (inactive)
